What was measured:
[1] = tested on: HDAC4, BDNF and GluN2B expression in primary cultured cortical neurons; assay: Expression of HDAC4, BDNF and GluN2B in primary cultured cortical neurons; type: cell-based, mouse
Method: Meanwhile, primary cortical neuron cells were isolated from cerebral cortices of 18-day-old mouse fetuses, incubated in prep media (composition (mM). NaCl 107.5. NaH2PO4 1, NaHCO333.5, glucose 11, HEPS 1%, penicillin-streptomycin 1%) containing 0.25% trypsin and DNase1 for 30 minutes, dissociated into single cells, and seeded. Primary cortical neuron cells were grown in Neurobasal medium supplemented with 1% (v/v) B27, 1% penicillin (100 U/mL), streptomycin ([…]), and 1% Glutamax. Cells were maintained in a humidified atmosphere of 95% air and 5% CO2 at 37° C. Drug efficacy was evaluated after culturing primary cortical neuron cells for 14 days.
(§1) The amount of GluN2B reacted with the compound of the present disclosure was measured using Western blot. The fetal cerebral cortex was extracted from mice at 17 days of gestation, dissociated into single cells, cultured for 13 days, and treated with BnH drugs for 24 hours. The drug-treated cells were subjected to protein lysate preparation using RIPA protein lysis buffer containing protease and phosphatase inhibitors. The protein concentration was determined using a BCA protein assay kit (Pierce Biotechnology) using bovine serum albumin as a standard. Equal amounts of protein (20 μg per lane) were separated by electrophoresis on SDS-polyacrylamide gels at 90 V for 2 hours, then transferred from the SDS-polyacrylamide gel to PVDF membrane at 100 V for 1 hour. Then, primary reaction with GluN2B antibody (ab65783, Abcam) was performed at 4° C. for 1 day, washed three times at 10-minutes intervals with 1×PBT, and secondary reaction was performed with anti-mouse antibody (sc-2357, Santa Cruz) for 1 hour, followed by washing three times at 10-minutes intervals with 1×PBT. Western blotting was performed as described above to confirm GluN2B protein expression. Subsequently, each blot was re-probed using anti-β-actin antibody (sc-47778, Santa Cruz). Housekeeping protein β-actin was detected as a normalization control.

[2] = tested on: BDNF and GluN2B expression in SH-SY5Y cells; assay: Expression of BDNF and GluN2B in SH-SY5Y cells; type: cell-based, human; details: 1 μM, application for 6 and 24 hours
Method: Human undifferentiated neuroblastoma cell line SH-SY5Y and human embryonic kidney cell line (HEK)-293T were purchased from Korean Cell Line Bank (Korea) and Takara (Japan), respectively. Cells were grown in HyClone Minimal Essential Medium (MEM) and Dulbecco's Modified Eagle Medium (DMEM), respectively, supplemented with 10% (v/v) fetal bovine serum (FBS), penicillin (100 U/mL), and streptomycin ([…]). Cells were maintained in a humidified atmosphere of 95% air and 5% CO2 at 37° C. Cells were passaged 10 times at maximum. Cells were dissociated using 0.05% trypsin-EDTA solution and the cells were seeded in new culture dishes for maintenance.

[3] = tested on: HDAC4, BDNF and GluN2B expression in C57BL/6J mice cortex; assay: Western blotting of HDAC4, BDNF and GluN2B in mouse cortical tissue after administration; type: in vivo
Method: For preparation of thalamocortical (TC) slices, 9- to 10-week-old male C57BL/6J rodents (mice) were anesthetized with isoflurane. Then, the brains were rapidly cooled by transcardial perfusion with ice-cold sucrose-artificial cerebrospinal fluid (aCSF). The brains were removed and placed in ice-cold sucrose aCSF. Paracoronal slices were prepared at a 50° angle to the midline on a ramp at an angle of 10°. The slices were then incubated in aCSF for 30 minutes at 35° C. to recover.
Subsequently, the slices were incubated in aCSF for 1 to 4 hours at room temperature (23 to 25° C.) before being placed in the recording chamber for experiment. Standard aCSF contains saturated with 95% O2/5% CO2.
All electrophysiological experiments were conducted at 27 to 29° C. Rodent (mice) was perfused with […] a sucrose-based aCSF solution (4° C.) using gravity. The brain of the rodent (mice) was removed and cut into 400 urn at a 50° angle (mouse at a 55° angle) to attach the cut portion to the vibratome disc to be the bottom. Brain slice was incubated in Incubate aCSF solution at 35° C. for 30 minutes or Incubate aCSF solution at RT for 1 hour. Cortical tissue from mice was prepared according to protocol above then was homogenized and lysed for protein extraction. The protein lysate was prepared from the tissue with NP40(FNN0021, Invitrogen) protein lysis buffer containing protease & […] according to the manufacturer's instruction. Protein concentrations were determined using the BCA Protein Assay Kit (Pierce Biotechnology) with bovine serum albumin as a standard. Equal amounts of proteins (20 μg per lane) were separated by electrophoresis on 8% or 12% SDS-polyacrylamide gel, followed by blotting onto PVDF membranes (GE Healthcare). To block nonspecific binding, the membranes were incubated for 1 h at room temperature in 5% non-fat dry milk in PBST (150 mM NaCl, 50 mM Tris, pH 7.4, 0.05% Tween 20). The following antibodies were incubated overnight at 4° C. in 2% blocking solution: Anti-HDAC4 (SAB4300413, Sigma-Aldrich), Anti-BDNF (ANT-010, Alomone Las), Anti-NMDAR2B (ab65783, abcam plc). Following the incubation with antibodies and several rinses in PBST, the membranes were incubated for 1 h with the mouse anti-rabbit IgG-HRP conjugated secondary anti-bodies (sc-2357, Santa Cruz). Each blot was subsequently re-probed with anti-β-actin antibody (sc-47778, Santa Cruz). Housekeeping protein β actin was detected as a normalization control. Antibodies used for methods described herein are as follows: […]

GluN2B = assay: Western blot of GluN2B protein in cultured fetal cortical cells; type: cell-based, mice
Method: as §1
The increase and decrease of BnH12 series were confirmed by setting the vehicle to 1 (N for each group was 3 or more).
Using the experimental procedure described in Example 3, it was determined whether various BnH12 series compounds increase GluN2B expression, and the results are shown in Table 6. These in vitro experimental results are expressed as relative values to the group (vehicle) that was not treated with the compound, with the effect of the group set to 1.

[4] = tested on: APP/PS1 mice hippocampus (Schaffer collateral-CA1); assay: fEPSP slope and LTP in hippocampus of Alzheimer's animal model; type: in vivo; details: 15 months old
Method: For intravenous injection, the tail vein injection method was used. […] In the drug injection test, the compound was administered once a day for about 11 to 13 days. 5 mice were used for the compound administration group and the control group, respectively.
For TC or hippocampus slice preparation. 9 to 10 weeks-old male C57BL/6J mice were anesthetized with isoflurane. Then, the brain was rapidly cooled via transcardial perfusion with ice-cold sucrose-artificial cerebrospinal fluid (aCSF). The brain was removed and placed in ice-cold sucrose aCSF. Paracoronal slices were prepared at an angle of 50° relative to the midline on a ramp at an angle of 10°. […]
Field recordings were made with a concentric bipolar electrode positioned in the stratum radiatum of the CA1 region using an extracellular glass pipette (3.5 MΩ) filled with aCSF. […] In all fEPSP experiments, the test stimulation were measured prior to the beginning of all the experiments (30 μA) and a test-pulse stimulation strength that evokes 50% of the maximum fEPSP was used. Baseline synaptic responses was recorded for 30 minutes, and then long-term potentiation (LTP) was induced by high-frequency stimulation (HFS; 100 Hz, 4 trains, 1 s duration, 20 s inter-train interval). […]
Excitatory postsynaptic potential (EPSP) was recorded by the whole-cell patch clamp method using a patch clamp amplifier (molecular devices, USA). […]

[5] = primary cultured cortical neurons
[6] = 1 μM, 24-hour treatment, cultured primary cortical neurons (DIV 14)
[7] = oral, 1 mg/kg, 8-week-old C57BL/6J mice, sacrificed 2 days later, vs vehicle

SMILES | BDNF expression [1, 5] | GluN2B expression [1, 5] | HDAC4 protein expression [1, 5] | BDNF expression [2] | GluN2B expression [2] | HDAC4 protein expression in mice barrel cortex ([3]; intraperitoneal administration) | HDAC4 protein expression in mice barrel cortex ([3]; oral administration) | Duration of inhibitory effect on HDAC4 protein expression ([3]; oral and intraperitoneal administration, mice barrel cortex) [days] | Effect on GluN2B expression compared to the vehicle (GluN2B; comment on Table 6) | GluN2B expression, Western blot results, Mean (GluN2B; relative value, vehicle set to 1, treated for 24 hours, N 3 or more) | BDNF expression [1, 6] | GluN2B expression [1, 6] | Slope of fEPSP in CA1 region of Schaffer collateral circuit (synaptic efficacy) [4] | Synaptic long-term potentiation (LTP) of the excitatory SC pathway [4] | BDNF expression [3, 7] | GluN2B expression [3, 7] | HDAC4 expression [3, 7] | GluN2B expression ([3]; oral, 1 mg/kg, 13-month-old C57BL/6J mice, sacrificed 2 days later, vs vehicle)
CC1CCC(C(=O)O)CN1C(=O)Cc1ccc(F)cc1Cl (racemic) [BnH12001, 1-(2-(2-chloro-4-fluorophenyl)acetyl)-6-methylpiperidine-3-carboxylic acid] | significantly increased | significantly increased | significantly suppressed | augmented | augmented | significantly suppressed | significantly suppressed | ≥ 9 | – | – | – | – | – | – | – | – | – | –
C[C@@H]1CC[C@H](C(=O)O)CN1C(=O)Cc1ccc(F)cc1Cl [BnH12001 enantiomer (3S,6R, 98%<), (3S,6R)-1-(2-(2-chloro-4-fluorophenyl)acetyl)-6-methylpiperidine-3-carboxylic acid] | – | – | – | – | – | – | – | – | excellent effects | 1.548 | increased | increased | increased synaptic efficacy | significantly increased | significantly increased | significantly increased | effectively degraded | significantly increased

Source: US20250188032A1, “NITROGEN-CONTAINING HETEROCYCLIC COMPOUNDS AND USES THEREOF” (BNH RESEARCH CO., LTD., priority 2022, published 2025)
